SMILES strings stand for the structures. ≈ marks a conversion by molar mass, not a printed value.

Series [1] deals with Klebsiella pneumoniae. Put plainly: Antibacterial activity against Klebsiella pneumoniae ATCC 10031 assessed as inhibition in bacterial growth incubated for 20 to 24 hrs by CLSI based broth microdilution method. The series is classed as functional. Particulars: time 20-24 hrs. Background: In broth dilution the organism is exposed to a series of concentrations in liquid medium.

The subject of series [2] is Escherichia coli. Kind of series: Antibacterial activity against Escherichia coli K-12 BW25113 assessed as inhibition in bacterial growth incubated for 20 to 24 hrs by CLSI based broth microdilution method. The series is classed as functional. Particulars: Escherichia coli, K-12 BW25113, time 20-24 hrs; read-out: MIC.
In series [3] the test system is Klebsiella pneumoniae. Put plainly: Antibacterial activity against Klebsiella pneumoniae ATCC 700603 assessed as inhibition in bacterial growth incubated for 20 to 24 hrs by CLSI based broth microdilution method. Type of series: functional. The settings on record: Klebsiella pneumoniae, ATCC 700603, time 20-24 hrs; read-out: MIC.
For series [4], the target named is T1, hERG (KCNH2) (Homo sapiens, UniProt Q12809). Put plainly: Inhibition of hERG potassium channel expressed in CHO cells at 1 uM by electrophysiological patch clamp assay relative to control. Type of series: toxicity, cell-based. The settings on record: CHO cells expressing hERG. Background: Block of hERG is tested as a sign of cardiac risk.
T1 sequence (Q12809 whole entry): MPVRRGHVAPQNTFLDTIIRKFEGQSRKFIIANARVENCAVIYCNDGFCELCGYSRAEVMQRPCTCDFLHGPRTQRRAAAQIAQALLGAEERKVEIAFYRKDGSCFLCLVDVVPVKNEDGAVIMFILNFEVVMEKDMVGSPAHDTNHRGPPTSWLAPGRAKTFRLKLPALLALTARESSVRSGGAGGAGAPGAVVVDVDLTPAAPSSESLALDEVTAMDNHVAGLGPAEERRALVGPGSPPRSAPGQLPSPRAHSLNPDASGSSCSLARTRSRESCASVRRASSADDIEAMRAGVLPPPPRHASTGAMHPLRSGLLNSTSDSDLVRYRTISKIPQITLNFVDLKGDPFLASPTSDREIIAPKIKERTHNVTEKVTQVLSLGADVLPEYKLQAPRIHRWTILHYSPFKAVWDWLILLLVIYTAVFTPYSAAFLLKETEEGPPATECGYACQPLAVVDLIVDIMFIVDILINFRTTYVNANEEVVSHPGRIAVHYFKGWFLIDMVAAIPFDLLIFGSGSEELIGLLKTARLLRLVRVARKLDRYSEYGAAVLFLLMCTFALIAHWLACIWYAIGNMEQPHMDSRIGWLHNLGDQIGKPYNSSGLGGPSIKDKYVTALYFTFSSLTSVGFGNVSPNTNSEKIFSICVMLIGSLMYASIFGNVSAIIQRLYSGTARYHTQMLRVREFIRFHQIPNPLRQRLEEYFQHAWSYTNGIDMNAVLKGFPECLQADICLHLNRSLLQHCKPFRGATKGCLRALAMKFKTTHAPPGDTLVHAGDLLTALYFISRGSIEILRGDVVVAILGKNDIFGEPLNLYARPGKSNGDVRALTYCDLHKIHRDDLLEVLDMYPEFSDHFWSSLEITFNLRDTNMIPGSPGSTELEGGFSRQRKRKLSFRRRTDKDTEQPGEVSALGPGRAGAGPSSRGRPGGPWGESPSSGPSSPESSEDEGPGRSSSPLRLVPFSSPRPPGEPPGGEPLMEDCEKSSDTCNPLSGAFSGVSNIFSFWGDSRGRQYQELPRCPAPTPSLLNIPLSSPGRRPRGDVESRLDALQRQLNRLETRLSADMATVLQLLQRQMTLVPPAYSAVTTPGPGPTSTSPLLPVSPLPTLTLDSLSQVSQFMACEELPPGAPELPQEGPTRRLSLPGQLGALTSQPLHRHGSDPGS
For series [5], the target named is DNA gyrase (Escherichia coli, UniProt P0AES4+P0AES6). Kind of series: Inhibition of Escherichia coli DNA gyrase incubated for 80 mins by Transcreener ADP2 FI assay. The series is classed as protein-complex assay.
Series [6] has as its target T1, hERG (KCNH2). Kind of series: Inhibition of hERG potassium channel expressed in CHO cells at 10 uM by electrophysiological patch clamp assay relative to control. The series is classed as toxicity, cell-based. Particulars: CHO cells expressing hERG.
In series [7] the test system is Pseudomonas aeruginosa. Kind of series: Antibacterial activity against Pseudomonas aeruginosa ATCC 27853 assessed as inhibition in bacterial growth incubated for 20 to 24 hrs by CLSI based broth microdilution method. Type of series: functional. Particulars: time 20-24 hrs.
Series [8] has as its system Escherichia coli. Kind of series: Antibacterial activity against Escherichia coli ATCC 35218 assessed as inhibition in bacterial growth incubated for 20 to 24 hrs by CLSI based broth microdilution method. Type of series: functional. Particulars: Escherichia coli, ATCC 35218, time 20-24 hrs; read-out: MIC.
The test system of series [9] is Staphylococcus aureus. Put plainly: Antibacterial activity against Staphylococcus aureus ATCC 29213 assessed as inhibition in bacterial growth incubated for 20 to 24 hrs by CLSI based broth microdilution method. The settings on record: Staphylococcus aureus, ATCC 29213; time 20-24 hrs; read-out: MIC. The series is classed as functional.
Series [10] concerns Staphylococcus aureus. Kind of series: Antibacterial activity against Staphylococcus aureus ATCC BAA-1556 assessed as inhibition in bacterial growth incubated for 20 to 24 hrs by CLSI based broth microdilution method. The settings on record: Staphylococcus aureus, ATCC BAA-1556, time 20-24 hrs; read-out: MIC. The series is classed as functional.
Series [11] in a line: Inhibition of Escherichia coli topoisomerase 4 incubated for 120 mins by Transcreener ADP2 FI assay.
The test system of series [12] is Pseudomonas aeruginosa. Kind of series: Antibacterial activity against Pseudomonas aeruginosa NCTC 13437 assessed as inhibition in bacterial growth incubated for 20 to 24 hrs by CLSI based broth microdilution method. The series is classed as functional. The settings on record: Pseudomonas aeruginosa, NCTC 13437, time 20-24 hrs; read-out: MIC.
Series [13] relates to Acinetobacter baumannii. Put plainly: Antibacterial activity against Acinetobacter baumannii ATCC BAA-747 assessed as inhibition in bacterial growth incubated for 20 to 24 hrs by CLSI based broth microdilution method. The series is classed as functional. Particulars: Acinetobacter baumannii, ATCC BAA-747, time 20-24 hrs; read-out: MIC.
The test system of series [14] is Pseudomonas aeruginosa. Kind of series: Antibacterial activity against Pseudomonas aeruginosa NCTC 11451 assessed as inhibition in bacterial growth incubated for 20 to 24 hrs by CLSI based broth microdilution method. The series is classed as functional. The settings on record: Pseudomonas aeruginosa, NCTC 11451, time 20-24 hrs; read-out: MIC.
The test system of series [15] is Escherichia coli. Kind of series: Antibacterial activity against Escherichia coli ATCC 25922 assessed as inhibition in bacterial growth incubated for 20 to 24 hrs by CLSI based broth microdilution method. Type of series: functional. The settings on record: time 20-24 hrs.
In series [16] the test system is Acinetobacter baumannii. Put plainly: Antibacterial activity against Acinetobacter baumannii ATCC 51432 assessed as inhibition in bacterial growth incubated for 20 to 24 hrs by CLSI based broth microdilution method. The series is classed as functional. The settings on record: Acinetobacter baumannii, ATCC 51432, time 20-24 hrs; read-out: MIC.
The test system of series [17] is Klebsiella pneumoniae. Put plainly: Antibacterial activity against Klebsiella pneumoniae ATCC BAA-1705 assessed as inhibition in bacterial growth incubated for 20 to 24 hrs by CLSI based broth microdilution method. The series is classed as functional. The settings on record: time 20-24 hrs.
Series [18] deals with Escherichia coli. Kind of series: Antibacterial activity against Escherichia coli K-12 BW25113 deltaTolC assessed as inhibition in bacterial growth incubated for 20 to 24 hrs by CLSI based broth microdilution method. Particulars: time 20-24 hrs. Type of series: functional.
For series [19], the system named is Escherichia coli. Put plainly: Antibacterial activity against Escherichia coli ATCC BAA-2340 assessed as inhibition in bacterial growth incubated for 20 to 24 hrs by CLSI based broth microdilution method. The series is classed as functional. Particulars: Escherichia coli, ATCC BAA-2340, time 20-24 hrs; read-out: MIC.
Series [20] deals with Voltage-gated inwardly rectifying potassium channel KCNH2 (Homo sapiens, UniProt Q12809). Put plainly: (§1) Inhibition of hERG potassium channel expressed in CHO cells by electrophysiological patch clamp assay. The series is classed as toxicity, cell-based.
Chain of Voltage-gated inwardly rectifying potassium channel KCNH2 (Q12809 whole entry): as above
In series [21] the target is T1, hERG (KCNH2). The description is as §1. The series is classed as toxicity, cell-based. The settings on record: human, CHO cells expressing hERG.
Series [22] concerns Acinetobacter baumannii. Put plainly: Antibacterial activity against Acinetobacter baumannii ATCC 19606 assessed as inhibition in bacterial growth incubated for 20 to 24 hrs by CLSI based broth microdilution method. Type of series: functional. Particulars: time 20-24 hrs.
In series [23] the test system is Klebsiella pneumoniae. Put plainly: Antibacterial activity against Klebsiella pneumoniae ATCC BAA-2146 assessed as inhibition in bacterial growth incubated for 20 to 24 hrs by CLSI based broth microdilution method. Type of series: functional. The settings on record: Klebsiella pneumoniae, ATCC BAA-2146, time 20-24 hrs; read-out: MIC.

Usually MIC stands for the lowest concentration that inhibits growth of the organism. In general, inhibition refers to the change of the read-out against control, counted positive when it falls. High values mean strong suppression, low ones little suppression. In general, IC50 refers to the concentration at which inhibition is half-maximal. By IC20 is commonly meant the point of the concentration-response curve where the effect stands at 20%. A higher IC20 goes with a need for much substance. `C[C@@H](N)COc1cc(F)c2c(c1)CC(CN1CCC3(CC1)CN(c1cnc4c(n1)NC(=O)CO4)C(=O)O3)C2` (some centres not stated): the minimal inhibitory concentration (MIC) in series [1] is no more than 0.06 µg/mL; in series [2] it was no more than 0.06 µg/mL; in [3] it was 1 µg/mL (≈ 1.9 µM); in [7] it was 0.125 µg/mL (≈ 0.237 µM); in series [8] it was no more than 0.06 µg/mL; in series [9] it was no more than 0.06 µg/mL. In addition, the MIC was no more than 0.06 µg/mL in [10]; 0.5 µg/mL (≈ 0.95 µM) in [12]; no more than 0.06 µg/mL in [13]; 0.5 µg/mL (≈ 0.95 µM) in series [14]; no more than 0.06 µg/mL in series [15]; 0.5 µg/mL (≈ 0.95 µM) in series [16]. Also, the MIC in [17] was 0.5 µg/mL (≈ 0.95 µM); in series [18], no more than 0.06 µg/mL; in series [19] it was 0.125 µg/mL (≈ 0.237 µM); in series [22], 0.25 µg/mL (≈ 0.475 µM); in series [23], 1 µg/mL (≈ 1.9 µM). In addition, the inhibition at 1 µM in series [4] was 6.7%. In addition, the IC50 in series [5] is 24 nM; in [11], 16 nM; in series [20], greater than 20000 nM. In series [6], the inhibition at 10 µM was 12%. The compound further came in with an IC20 in [21] greater than 10000 nM.

As to `N#Cc1cc(OCCN)cc2c1CC(CNCCC1CN(c3ccc4c(n3)NC(=O)CO4)C(=O)O1)C2` (configuration not stated), the MIC in series [1] is no more than 0.06 µg/mL; in series [2], 0.125 µg/mL (≈ 0.254 µM); in series [3], 2 µg/mL (≈ 4.06 µM); in [7], 0.125 µg/mL (≈ 0.254 µM); in series [8], 0.25 µg/mL (≈ 0.508 µM); in series [9] it was 0.5 µg/mL (≈ 1.02 µM). The MIC was 1 µg/mL (≈ 2.03 µM) in series [10]; 0.5 µg/mL (≈ 1.02 µM) in series [12]; 1 µg/mL (≈ 2.03 µM) in [13]; 1 µg/mL (≈ 2.03 µM) in series [14]; 0.25 µg/mL (≈ 0.508 µM) in series [15]; 16 µg/mL (≈ 32.5 µM) in series [16]. Besides, the MIC in [17] is 2 µg/mL (≈ 4.06 µM); in [18] it was no more than 0.06 µg/mL; in [19] it was 0.25 µg/mL (≈ 0.508 µM); in [22], 16 µg/mL (≈ 32.5 µM); in [23], 4 µg/mL (≈ 8.12 µM). This compound also had an inhibition at 1 µM in series [4] of less than 1%. Moreover, the figures for the half-inhibitory concentration (IC50) in series [5], in [11] and in [20] were 17 nM, 6 nM and greater than 20000 nM, respectively. In [6], this compound yielded an inhibition at 10 µM of less than 1%. For the same compound, in series [21], the IC20 is greater than 10000 nM.

For the compound `NC1(COc2cc(F)c3c(c2)CC(CNCCC2CN(c4ccc5c(n4)NC(=O)CO5)C(=O)O2)C3)CC1` (configuration not stated), the MIC in series [1] is no more than 0.06 µg/mL; in series [2] it was no more than 0.06 µg/mL; in [3], 2 µg/mL (≈ 3.91 µM); in [7], 0.5 µg/mL (≈ 0.977 µM); in series [8], 0.125 µg/mL (≈ 0.244 µM); in series [9] it was no more than 0.06 µg/mL. In addition, the MIC was 0.125 µg/mL (≈ 0.244 µM) in series [10]; 1 µg/mL (≈ 1.95 µM) in series [12]; no more than 0.06 µg/mL in [13]; 2 µg/mL (≈ 3.91 µM) in series [14]; 0.125 µg/mL (≈ 0.244 µM) in [15]; 1 µg/mL (≈ 1.95 µM) in series [16]. For the same compound, the minimal inhibitory concentration (MIC) in series [17] was 1 µg/mL (≈ 1.95 µM); in series [18], no more than 0.06 µg/mL; in [19] it was 0.25 µg/mL (≈ 0.489 µM); in [22], 0.5 µg/mL (≈ 0.977 µM); in [23] it was 1 µg/mL (≈ 1.95 µM). This compound had an inhibition at 1 µM in [4] of less than 1%. For the same compound, the IC50 in [5] was 100 nM; in [11] it was 39 nM; in series [20], greater than 10000 nM. The same compound returned an inhibition at 10 µM in series [6] of 45%. This compound also had a 20% effect concentration (IC20) in series [21] of 3100 nM.

As to `N#Cc1cc(OC2CNC2)cc2c1CC(CNCCC1CN(c3ccc4c(n3)NC(=O)CO4)C(=O)O1)C2` (configuration not stated), the MIC is no more than 0.06 µg/mL in series [1]; 0.125 µg/mL (≈ 0.248 µM) in [2]; 4 µg/mL (≈ 7.93 µM) in series [3]; 0.125 µg/mL (≈ 0.248 µM) in series [7]; 0.5 µg/mL (≈ 0.991 µM) in series [8]; no more than 0.06 µg/mL in [9]. The MIC in [10] came out at 0.5 µg/mL (≈ 0.991 µM); in series [12] it was 0.5 µg/mL (≈ 0.991 µM); in series [13], 4 µg/mL (≈ 7.93 µM); in series [14] it was 1 µg/mL (≈ 1.98 µM); in series [15], 0.5 µg/mL (≈ 0.991 µM); in [16], 4 µg/mL (≈ 7.93 µM). The MIC is 4 µg/mL (≈ 7.93 µM) in series [17]; no more than 0.06 µg/mL in series [18]; 0.5 µg/mL (≈ 0.991 µM) in series [19]; 8 µg/mL (≈ 15.9 µM) in [22]; 8 µg/mL (≈ 15.9 µM) in series [23]. In addition, the inhibition at 1 µM in series [4] is less than 1%. For the same compound, the IC50 in series [5] was 51 nM; in series [11], 29 nM; in [20], greater than 20000 nM. Besides, the inhibition at 10 µM in series [6] was less than 1%. Also, the IC20 in series [21] is greater than 10000 nM.

The values above are taken from ChEMBL document CHEMBL5390317, “Novel Indane-Containing NBTIs with Potent Anti-Gram-Negative Activity and Minimal hERG Inhibition” (ACS Med Chem Lett, 2023).
